Results published in US20260345507A1, “COMPOSITIONS AND METHODS FOR DELIVERY OF RNA” (REJUVENATION TECHNOLOGIES, INC., priority 2022, published 2026).

How the values were obtained:
[1] = Pharmacokinetics of 5-lipid LNP (DOTAP by LC-MS/MS); format: in vivo, mouse; design: Decay constant: unit not given here; conditions: 1.0 mg mRNA/kg; for half-life: mouse, 1 mg/kg
Method: Methods: LNPs were formulated using lipid molar ratios in Table 1 with mRNA encoding human telomerase. CD1 male mice were dosed at 1.0 mg mRNA/kg of body weight, and plasma and tissue were collected at time points 0 (<5 min) and 24 hours. DOTAP was measured using LC-MS/MS. mRNA was measured by qRT-PCR. “Liver Rest” is the liver sample excluding the left lobe.

P21 = assay: Senescence marker P21 in lung alveolar cells of bleomycin-treated mice; format: in vivo, mouse; conditions: following bleomycin treatment
Method: FIGS. 3-17 and FIGS. 20-21 depict experiments involving the use of a different 5 lipid LNP composition where lung fibrosis was induced in third generation (G3) TERT knock-out (KO) mice, which have telomere lengths that are similar to those of humans. Bleomycin was administered via oropharyngeal aspiration at 2.0 U/kg. For FIGS. 13-16, an initial dose of bleomycin was administered via oropharyngeal aspiration at 0.5 U/kg one week prior to the 2.0 U/kg dose. LNPs were formulated with firefly luciferase mRNA (Ctrl) or TERT mRNA (mouse SEQ ID NO: 2, including synthetic 5′ UTR (SEQ ID NO: 3), wt mTert coding sequence (SEQ ID NO: 4) and mouse alpha-globin 3′ UTR (SEQ ID NO: 5)) (referred to as “TERT mRNA LNP” herein or “TERT” or “TERT mRNA” in the figures) and the lipids in the ratios of Table 3. The DOTAP molar ratio is 2.27 times higher in the 5 lipid LNP of Table 3. Mice were dosed at 1.5 mg/kg twice a week for two weeks beginning on day 7 post bleomycin. Some mice received bleomycin, but not LNP treatment (No LNP), and control mice received saline instead of bleomycin and LNP treatment (No Bleo). Tissues were harvested on day 24 post bleomycin. Lungs were […]. […] Telomerase activity was measured in lung tissue lysate using the telomeric repeat amplification protocol (TRAP) assay. […]

[2] = Liver Left Lobe, dosed as 5-lipid LNP of Table 1, CD1 male mice
[3] = Liver Rest (liver excluding left lobe), 5-lipid LNP of Table 1, CD1 male mice
[4] = Lung Right Lobes, 5-lipid LNP of Table 1, CD1 male mice
[5] = Plasma, 5-lipid LNP of Table 1, CD1 male mice
[6] = Spleen, 5-lipid LNP of Table 1, CD1 male mice

## CCCCCCCC/C=C\CCCCCCCC(=O)OCC(C[N+](C)(C)C)OC(=O)CCCCCCC/C=C\CCCCCCCC (stereo not drawn) [DOTAP, 1,2-dioleoyl-3-trimethylammonium-propane]
[1]; [2]
  Decay constant: 0.066
  half-life: 10.5 h
[1]; [3]
  Decay constant: 0.050
  half-life: 13.8 h
[1]; Lung Left Lobe, 5-lipid LNP of Table 1, CD1 male mice
  Decay constant: 0.094
[1]; [4]
  Decay constant: 0.073
  half-life: 9.51 h
[1]; [5]
  Decay constant: 0.191
  half-life: 3.63 h
[1]; [6]
  Decay constant: 0.136
  half-life: 5.09 h

## bleomycin
P21
  senescence (P21): Increase in senescence
